Experimental data from PubChem BioAssay (NCI).
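At the GI50, growth is halved. TGI is the concentration that stops growth completely.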

Legend:
Test in all cases: NCI-60 cell line screen, 384-well format
786-0 renal = test system: 786-0 renal
A498 renal = test system: A498 renal
A549 NSCLC = test system: A549 NSCLC
ACHN renal = test system: ACHN renal
BT-549 breast = test system: BT-549 breast
CAKI-1 renal = test system: CAKI-1 renal
CCRF-CEM leukemia = test system: CCRF-CEM leukemia
COLO 205 colon = test system: COLO 205 colon
DU-145 prostate = test system: DU-145 prostate
EKVX NSCLC = test system: EKVX NSCLC
HCC-2998 colon = test system: HCC-2998 colon
HCT-116 colon = test system: HCT-116 colon
HCT-15 colon = test system: HCT-15 colon
HL-60(TB) leukemia = test system: HL-60(TB) leukemia
HOP-62 NSCLC = test system: HOP-62 NSCLC
HOP-92 NSCLC = test system: HOP-92 NSCLC
HS 578T breast = test system: HS 578T breast
HT29 colon = test system: HT29 colon
IGROV1 ovarian = test system: IGROV1 ovarian
K-562 leukemia = test system: K-562 leukemia
KM12 colon = test system: KM12 colon
LOX IMVI melanoma = test system: LOX IMVI melanoma
M14 melanoma = test system: M14 melanoma
MALME-3M melanoma = test system: MALME-3M melanoma
MCF7 breast = test system: MCF7 breast
MDA-MB-231 breast = test system: MDA-MB-231 breast
MDA-MB-435 melanoma = test system: MDA-MB-435 melanoma
MDA-MB-468 breast = test system: MDA-MB-468 breast
MOLT-4 leukemia = test system: MOLT-4 leukemia
NCI-H226 lung = test system: NCI-H226 lung
NCI-H23 lung = test system: NCI-H23 lung
NCI-H322M lung = test system: NCI-H322M lung
NCI-H460 NSCLC = test system: NCI-H460 NSCLC
NCI-H522 lung = test system: NCI-H522 lung
NCI/ADR-RES ovarian = test system: NCI/ADR-RES ovarian
OVCAR-3 ovarian = test system: OVCAR-3 ovarian
OVCAR-4 ovarian = test system: OVCAR-4 ovarian
OVCAR-5 ovarian = test system: OVCAR-5 ovarian
OVCAR-8 ovarian = test system: OVCAR-8 ovarian
PC-3 prostate = test system: PC-3 prostate
RPMI-8226 leukemia = test system: RPMI-8226 leukemia
RXF 393 renal = test system: RXF 393 renal
SF-268 CNS = test system: SF-268 CNS
SF-295 CNS = test system: SF-295 CNS
SF-539 CNS = test system: SF-539 CNS
SK-MEL-28 melanoma = test system: SK-MEL-28 melanoma
SK-MEL-5 melanoma = test system: SK-MEL-5 melanoma
SK-OV-3 ovarian = test system: SK-OV-3 ovarian
SN12C renal = test system: SN12C renal
SNB-19 CNS = test system: SNB-19 CNS
SNB-75 CNS = test system: SNB-75 CNS
SR leukemia = test system: SR leukemia
SW-620 colon = test system: SW-620 colon
T-47D breast = test system: T-47D breast
TK-10 renal = test system: TK-10 renal
U251 glioblastoma = test system: U251 glioblastoma
UACC-257 melanoma = test system: UACC-257 melanoma
UO-31 renal = test system: UO-31 renal

## CC(C)(C)c1[nH]cnc1/C=c1\[nH]c(=O)/c(=C/c2ccccc2)[nH]c1=O
786-0 renal
  GI50: < 10 nM
  TGI: 27 nM
A498 renal
  GI50: < 10 nM
  TGI: 265 nM
A549 NSCLC
  GI50: < 10 nM
  TGI: 16.7 µM
ACHN renal
  GI50: < 10 nM
  TGI: 13.3 µM
BT-549 breast
  GI50: < 10 nM
  TGI: 25.5 nM
CAKI-1 renal
  GI50: < 10 nM
  TGI: 13 µM
CCRF-CEM leukemia
  GI50: < 10 nM
  TGI: < 10 nM
COLO 205 colon
  GI50: < 10 nM
  TGI: < 10 nM
DU-145 prostate
  GI50: < 10 nM
  TGI: 21.9 nM
EKVX NSCLC
  GI50: < 10 nM
  TGI: 13 µM
HCC-2998 colon
  GI50: < 10 nM
  TGI: 22.1 nM
HCT-116 colon
  GI50: < 10 nM
  TGI: 39.3 nM
HCT-15 colon
  GI50: < 10 nM
  TGI: 22.5 nM
HL-60(TB) leukemia
  GI50: < 10 nM
  TGI: < 10 nM
HOP-62 NSCLC
  GI50: < 10 nM
  TGI: 304 nM
HOP-92 NSCLC
  GI50: < 10 nM
  TGI: 2810 nM
HS 578T breast
  GI50: < 10 nM
  TGI: < 10 nM
HT29 colon
  GI50: < 10 nM
  TGI: 12.9 µM
IGROV1 ovarian
  GI50: < 10 nM
  TGI: 10.2 µM
K-562 leukemia
  GI50: < 10 nM
  TGI: < 10 nM
KM12 colon
  GI50: < 10 nM
  TGI: 1250 nM
LOX IMVI melanoma
  GI50: < 10 nM
  TGI: 30.5 nM
M14 melanoma
  GI50: < 10 nM
  TGI: < 10 nM
MALME-3M melanoma
  GI50: < 10 nM
  TGI: 16.5 µM
MCF7 breast
  GI50: < 10 nM
  TGI: 10.3 µM
MDA-MB-231 breast
  GI50: 10.7 nM
  TGI: 19.7 µM
MDA-MB-435 melanoma
  GI50: < 10 nM
  TGI: < 10 nM
MDA-MB-468 breast
  GI50: 10.3 nM
  TGI: 24.6 nM
MOLT-4 leukemia
  GI50: < 10 nM
  TGI: < 10 nM
NCI-H226 lung
  GI50: < 10 nM
  TGI: 26.2 nM
NCI-H23 lung
  GI50: < 10 nM
  TGI: < 10 nM
NCI-H322M lung
  GI50: < 10 nM
  TGI: 15.2 µM
NCI-H460 NSCLC
  GI50: < 10 nM
  TGI: < 10 nM
NCI-H522 lung
  GI50: < 10 nM
  TGI: < 10 nM
NCI/ADR-RES ovarian
  GI50: < 10 nM
  TGI: < 10 nM
OVCAR-3 ovarian
  GI50: < 10 nM
  TGI: < 10 nM
OVCAR-4 ovarian
  GI50: < 10 nM
  TGI: 3.72 µM
OVCAR-5 ovarian
  GI50: 10.9 µM
  TGI: 32.9 µM
OVCAR-8 ovarian
  GI50: < 10 nM
  TGI: 15.9 nM
PC-3 prostate
  GI50: < 10 nM
  TGI: 14.9 µM
RPMI-8226 leukemia
  GI50: < 10 nM
  TGI: < 10 nM
RXF 393 renal
  GI50: < 10 nM
  TGI: < 10 nM
SF-268 CNS
  GI50: < 10 nM
  TGI: 49.1 nM
SF-295 CNS
  GI50: < 10 nM
  TGI: < 10 nM
SF-539 CNS
  GI50: < 10 nM
  TGI: < 10 nM
SK-MEL-28 melanoma
  GI50: 1750 nM
  TGI: 20.4 µM
SK-MEL-5 melanoma
  GI50: < 10 nM
  TGI: < 10 nM
SK-OV-3 ovarian
  GI50: < 10 nM
  TGI: 746 nM
SN12C renal
  GI50: < 10 nM
  TGI: 4.23 µM
SNB-19 CNS
  GI50: < 10 nM
  TGI: 11 µM
SNB-75 CNS
  GI50: < 10 nM
  TGI: 78.3 nM
SR leukemia
  GI50: < 10 nM
  TGI: < 10 nM
SW-620 colon
  GI50: < 10 nM
  TGI: 17.5 µM
T-47D breast
  GI50: < 10 nM
  TGI: 7.15 µM
TK-10 renal
  GI50: < 10 nM
  TGI: 16.4 µM
U251 glioblastoma
  GI50: < 10 nM
  TGI: 16.8 nM
UACC-257 melanoma
  GI50: < 10 nM
  TGI: 18.8 µM
UO-31 renal
  GI50: < 10 nM
  TGI: 14.5 µM
